Results published in ChEMBL document CHEMBL1201862, “PubChem BioAssay data set” (2004).
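All cell lines were grown in 96-well plates and treated with compound for 48 hours. GI50 is the concentration that inhibits growth by half.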 Active and inactive are the calls of the source. Rule as the data show it: active = GI50 up to about 1.1 µM and inactive = higher.

Tests used:
Assay in all cases: inhibition of tumour cell growth, NCI panel, 48 h
[1] = test system: Malme-3M
[2] = test system: MDA-MB-231
[3] = test system: OVCAR-8
[4] = test system: NCI-H226
[5] = test system: TK-10
[6] = test system: COLO 205
[7] = test system: HCC 2998
[8] = test system: SF-268
[9] = test system: UACC-257
[10] = test system: T47D
[11] = test system: HOP-62
[12] = test system: MDA-MB-435
[13] = test system: MDA-N
[14] = test system: SK-OV-3
[15] = test system: IGROV-1
[16] = test system: A498
[17] = test system: Hs-578T
[18] = test system: RXF 393
[19] = test system: KM12
[20] = test system: U-251
[21] = test system: K562
[22] = test system: SF-539
[23] = test system: EKVX
[24] = test system: NCI-H460
[25] = test system: ACHN
[26] = test system: SW-620
[27] = test system: HT-29
[28] = test system: HL-60
[29] = test system: SK-MEL-5
[30] = test system: MCF7
[31] = test system: CAKI-1
[32] = test system: LOX IMVI
[33] = test system: SNB-75
[34] = test system: SNB-19
[35] = test system: DU-145
[36] = test system: RPMI-8226
[37] = test system: BT-549
[38] = test system: OVCAR-5
[39] = test system: 786-0
[40] = test system: A549
[41] = test system: M14
[42] = test system: UACC-62
[43] = test system: SK-MEL-28
[44] = test system: CCRF-CEM
[45] = test system: SR
[46] = test system: SK-MEL-2
[47] = test system: PC-3
[48] = test system: SF-295
[49] = test system: SN12C
[50] = test system: MOLT-4
[51] = test system: HCT-116
[52] = test system: OVCAR-4
[53] = test system: OVCAR-3
[54] = test system: NCI-H522
[55] = test system: HCT-15
[56] = test system: NCI-H23
[57] = test system: HOP-92
[58] = test system: UO-31
[59] = test system: NCI/ADR-RES

Measured: GI50

CC(C)C1OC(=O)C=C1Sc1ccccc1 (stereo not drawn)
> 100 µM: [55]
inactive: [1] 80.7 µM | [2] > 100 µM | [3] > 100 µM | [4] > 100 µM | [5] > 100 µM | [6] > 100 µM | [7] > 100 µM | [8] > 100 µM | [9] > 100 µM | [10] > 100 µM | [11] > 100 µM | [12] > 100 µM | [13] > 100 µM | [14] > 100 µM | [15] > 100 µM | [16] > 100 µM | [17] > 100 µM | [18] > 100 µM | [19] > 100 µM | [20] > 100 µM | [21] > 100 µM | [22] > 100 µM | [23] > 100 µM | [24] > 100 µM | [25] > 100 µM | [26] > 100 µM | [27] > 100 µM | [28] > 100 µM | [29] > 100 µM | [30] > 100 µM | [31] > 100 µM | [32] > 100 µM | [33] > 100 µM | [34] > 100 µM | [35] > 100 µM | [36] > 100 µM | [37] > 100 µM | [38] > 100 µM | [39] > 100 µM | [40] > 100 µM | [41] > 100 µM | [42] > 100 µM | [43] > 100 µM | [44] > 100 µM | [45] > 100 µM | [46] > 100 µM | [47] > 100 µM | [48] > 100 µM | [49] > 100 µM | [50] > 100 µM | [51] > 100 µM | [52] > 100 µM | [53] > 100 µM | [54] > 100 µM

COc1cc2c3c(cc(Cl)nc3c1OC)C(=O)C(=O)N2
inactive: [1] 2.06 µM | [2] 1.94 µM | [3] 18.2 µM | [4] 21.1 µM | [5] 18.7 µM | [6] 21.9 µM | [7] 18.2 µM | [8] 17.4 µM | [9] 8.39 µM | [10] 3.68 µM | [11] 19.6 µM | [12] 1.79 µM | [14] 18 µM | [15] 9.89 µM | [16] 16.6 µM | [17] 30.4 µM | [18] 13.6 µM | [56] 16.7 µM | [57] 1.81 µM | [19] 16.4 µM | [20] 16.5 µM | [21] 2.91 µM | [22] 20.2 µM | [23] 6.81 µM | [24] 20.7 µM | [25] 14.7 µM | [26] 5.85 µM | [27] 22.4 µM | [28] 1.36 µM | [29] 16.4 µM | [30] 2.05 µM | [31] 15.1 µM | [32] 9.44 µM | [33] 15.7 µM | [34] 22.9 µM | [35] 17 µM | [36] 2.68 µM | [37] 16.2 µM | [38] 18 µM | [39] 5.94 µM | [40] 19.7 µM | [41] 15.6 µM | [58] 13.6 µM | [42] 6.28 µM | [43] 17.1 µM | [44] 1.69 µM | [45] 3.26 µM | [46] 14.1 µM | [47] 14.5 µM | [48] 18.6 µM | [49] 8.99 µM | [50] 2.34 µM | [51] 4.33 µM | [52] 1.6 µM | [53] 16.6 µM | [54] 4.22 µM | [59] 22.5 µM
19.2 µM: [55]
